The text below walks through data of US12071488B2, “Method of sensitizing cancer cells to anti-cancer treatment” (TWO TO BIOTECH LTD., priority 2017, dated 2024).

Assay [1] relates to human TNBC tumors (MDA-MB-231). The experiment in a line: Relative tumor volume in nude mice inoculated with TNBC cells. In kind it is in vivo. To be noted: MDA-MB-231 tumors; APC1 15 mg/kg, doxorubicin 3 mg/kg once a week; 5 weeks; control increased linearly. The text has this:
To this end, mice were inoculated with TNBC cells as detailed above, briefly 32 nude mice were inoculated subcutaneously with TNBC cells (MDA-MB-231, 8×10^6 cells per mouse).

The subject of assay [2] is human ovarian cancer cells (OV90). The experiment in a line: Relative tumor volume in nude mice inoculated with human ovarian cancer cells. The assay is classed as in vivo. To be noted: OV90 tumors; APC1 15 mg/kg, doxorubicin 3 mg/kg once a week; 5 weeks; control increased linearly.
Method: During the treatment period, each mouse was weighted, and the tumor size was measured by Digital caliper.
When the tumors exceeded a volume of 40 mm^3 or 50 mm^3 (for OV90 and Panc1, respectively), the mice were randomly divided into four groups of 8 mice each, as follows. A control group was treated with saline only, the APC1-treated group was treated three times a week with doses of APC1 at 15 mg/kg each, the doxorubicin and APC treated group was treated twice a week with doses of APC1 (at 15 mg/kg each) and once a week with doxorubicin (at 3 mg/kg) and the doxorubicin-treated group was treated with doxorubicin only, once a week at a dose of 3 mg/kg. These dosing protocols were repeated throughout the experiment, namely for 5 weeks.
The next assay deals with tumor. As to conditions: WO 2009/083968; cited from earlier work.
The test system of assay [3] is leukemia and prostate cancer cells. As to conditions: WO 2009/083968; cited from earlier work.

As for `COc1cccc2c1C(=O)c1c(O)c3c(c(O)c1C2=O)C[C@@](O)(C(=O)CO)C[C@@H]3O[C@H]1C[C@H](N)[C@H](O)[C@H](C)O1` [doxorubicin, (7S,9S)-7-[(2R,4S,5S,6S)-4-amino-5-hydroxy-6-methyloxan-2-yl]oxy-6,9,11-trihydroxy-9-(2-hydroxyacetyl)-4-methoxy-8,10-dihydro-7H-tetracene-5,12-dione, reference compound], the results for the relative tumor volume entry in assay [1] and in assay [2] were “moderate increase” and “modest increases”, respectively.

B1: MPGHSRLLSILVSGLCVVGSSIGVLRRREQAERGSRRCAIAGEERAMLSPSPLPE TPFSPEKGAAFSPIYPRRK (protein, listed as Homo sapiens)
chain: MPGHSRLLSILVSGLCVVGSSIGVLRRREQAERGSRRCAIAGEERAMLSPSPLPETPFSPEKGAAFSPIYPRRK
notes: full length polypeptide of 74 amino acid residues described in WO 2009/083968
On to B1, for which the “tumor growth in mice” value in the assay on tumor is given as “prevention of tumor growth”. The “viability of leukemia and prostate cancer cells” value in assay [3] is recorded as “decrease in the viability”.
